Assay results reported in ChEMBL document CHEMBL5050852, “Kif18a inhibitors” (2021).

Molecular target: T1, Kinesin-like protein KIF18A (Homo sapiens, UniProt Q8NI77)
T1 sequence (Q8NI77 whole entry): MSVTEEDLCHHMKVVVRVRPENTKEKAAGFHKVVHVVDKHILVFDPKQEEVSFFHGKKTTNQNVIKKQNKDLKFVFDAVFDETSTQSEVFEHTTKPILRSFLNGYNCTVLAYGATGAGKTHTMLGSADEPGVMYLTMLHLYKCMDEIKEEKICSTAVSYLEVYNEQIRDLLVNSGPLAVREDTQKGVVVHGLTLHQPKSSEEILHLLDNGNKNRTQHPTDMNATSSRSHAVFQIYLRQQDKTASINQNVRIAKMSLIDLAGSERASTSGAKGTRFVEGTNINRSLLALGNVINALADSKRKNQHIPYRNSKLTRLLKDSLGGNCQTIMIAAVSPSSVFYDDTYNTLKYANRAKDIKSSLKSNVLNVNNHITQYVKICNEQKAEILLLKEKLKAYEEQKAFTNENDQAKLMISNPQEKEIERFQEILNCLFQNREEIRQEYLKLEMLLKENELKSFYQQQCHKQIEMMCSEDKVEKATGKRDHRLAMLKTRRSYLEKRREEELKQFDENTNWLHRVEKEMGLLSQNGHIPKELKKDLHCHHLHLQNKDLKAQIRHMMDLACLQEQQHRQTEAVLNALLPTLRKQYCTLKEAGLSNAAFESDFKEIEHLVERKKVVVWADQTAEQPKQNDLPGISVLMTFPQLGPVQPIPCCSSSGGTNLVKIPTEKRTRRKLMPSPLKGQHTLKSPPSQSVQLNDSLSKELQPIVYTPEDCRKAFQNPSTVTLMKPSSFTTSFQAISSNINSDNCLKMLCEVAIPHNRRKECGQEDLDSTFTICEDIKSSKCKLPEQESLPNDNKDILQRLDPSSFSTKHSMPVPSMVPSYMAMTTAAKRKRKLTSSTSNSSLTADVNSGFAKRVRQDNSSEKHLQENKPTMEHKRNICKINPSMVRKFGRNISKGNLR
Assay: Inhibition of recombinant His-tagged human KIF18A (1 to 467 residues) expressed in baculovirus expression system assessed as inhibition of microtubule-stimulated ATPase activity preincubated for 15 mins followed by ATP addition and further incubated for 15 mins and measured after 40 mins by ADP-Glo reagent based assay

Compound	IC50 [nM]
CC(C)(C)NS(=O)(=O)c1cccc(NC(=O)c2ccc(NS(=O)(=O)CCO)cc2N2CCC3(CC2)CC3)c1	51
CCS(=O)(=O)Cc1ccc(C(=O)Nc2cccc(S(=O)(=O)NC(C)(C)C)c2)c(N2CCC3(CC2)CC3)c1	75
C[C@@H]1CN(c2cc(F)cc(NC(=O)c3ccc(NS(=O)(=O)CCO)cc3N3CCC4(CC3)CC4)c2)CCO1	131
CC(C)(C)NS(=O)(=O)c1cccc(NC(=O)c2ccc(CS(=O)(=O)C(C)(C)C)cc2N2CCC3(CC2)CC3)c1	76
CC(C)(CO)Nc1cccc(NC(=O)c2ccc(S(=O)(=O)NC3(C)COC3)cc2N2CCC3(CC2)CC3)c1	198
